The source of these data is patent US20260271933A1 (priority 2023, published 2026).

Assay [1] concerns Pythium ultimum. The assay is described as follows: Pythium ultimum / liquid culture (seedling damping off). The class given is cell-based. The following applies: Globisporangium ultimum, growth inhibition determined photometrically, compared to untreated control. As for the experimental part:
Pythium ultimum/Liquid Culture (Seedling Damping Off)
Mycelia fragments and oospores of a newly grown liquid culture of the fungus are directly mixed into nutrient broth (PDB potato dextrose broth). After placing a (DMSO) solution of test compound into a microtiter plate (96-well format), the nutrient broth containing the fungal mycelia/spore mixture is added.
The test plates are incubated at 24° C. and the inhibition of growth is determined photometrically 2-3 days after application.

Assay [2] has as its system Plasmopara viticola. The experiment in a line: whole plant or invertebrate. The format is in vivo. The following applies: foliar.
Assay [3] relates to Phytophthora infestans. The experiment in a line: whole plant or invertebrate. The class given is in vivo. As to conditions: in Solanum lycopersicum, foliar, read-out: control of Phytophthora infestans.

Molecules are shown by their SMILES.

Regarding `COC(=O)Nc1ccc(-c2cnc3ccc(C(=O)N4CCCc5cc(F)ccc54)cn23)cn1` [Compound 66, methyl N-[5-[6-(6-fluoro-3,4-dihydro-2H-quinoline-1-carbonyl)imidazo[1,2-a]pyridin-3-yl]-2-pyridyl]carbamate], in assay [1], the inhibition of growth (commonly the percentage by which the read-out fell short of the control) at 20 ppm was at least 80%. In addition, the pest or weed control at 200 ppm in assay [2] and in assay [3] was at least 80% each time.
In assay [1], `CCOC(=O)C1Cc2cc(F)ccc2N(C(=O)c2ccc3ncc(-c4ccc(NC(=O)OC)nc4)n3c2)C1` (stereo not shown) [Compound 35, ethyl 6-fluoro-1-[3-[6-(methoxycarbonylamino)-3-pyridyl]imidazo[1,2-a]pyridine-6-carbonyl]-3,4-dihydro-2H-quinoline-3-carboxylate] returned an inhibition of growth at 20 ppm of at least 80%. In addition, the pest or weed control at 200 ppm in assay [2] and in assay [3] was at least 80% in each case.
`COC(=O)Nc1ccc(-c2cnc3ccc(C(=O)N4CCN(C)c5cc(F)ccc54)cn23)cn1` [Compound 3, methyl N-[5-[6-(6-fluoro-4-methyl-2,3-dihydroquinoxaline-1-carbonyl)imidazo[1,2-a]pyridin-3-yl]-2-pyridyl]carbamate] returned an inhibition of growth at 20 ppm in assay [1] of at least 80%. Besides, the pest or weed control at 200 ppm in assay [2] and in assay [3] was at least 80% throughout.
The compound `COC(=O)Nc1ccc(-c2cnc3c(C)cc(C(=O)N4CCN(C)c5cc(F)ccc54)cn23)cn1` [Compound 2, methyl N-[5-[6-(6-fluoro-4-methyl-2,3-dihydroquinoxaline-1-carbonyl)-8-methyl-imidazo[1,2-a]pyridin-3-yl]-2-pyridyl]carbamate] came in with an inhibition of growth at 20 ppm in assay [1] of at least 80%. In addition, the pest or weed control at 200 ppm in assay [2] and in assay [3] was at least 80% in each case.
Consider `COC(=O)Nc1ccc(-c2cnc3ccc(C(=O)N4CCN(C5CC5)c5cc(F)ccc54)cn23)cn1` [Compound 51, methyl N-[5-[6-(4-cyclopropyl-6-fluoro-2,3-dihydroquinoxaline-1-carbonyl)imidazo[1,2-a]pyridin-3-yl]-2-pyridyl]carbamate], for which, in assay [1], the inhibition of growth at 20 ppm is at least 80%. The pest or weed control at 200 ppm in assay [2] and in assay [3] was at least 80% throughout.
Regarding `COC(=O)Nc1ccc(-c2cnc3ccc(C(=O)N4CCCc5c(C(=O)OC)cccc54)cn23)cn1` [Compound 7, methyl 1-[3-[6-(methoxycarbonylamino)-3-pyridyl]imidazo[1,2-a]pyridine-6-carbonyl]-3,4-dihydro-2H-quinoline-5-carboxylate], the inhibition of growth at 20 ppm in assay [1] is at least 80%. In assay [2], this compound returned a pest or weed control at 200 ppm of at least 80%.
`COC(=O)Nc1ccc(-c2cnc3ccc(C(=O)N(C)c4ccc(F)cc4OC)cn23)cn1` [Compound 30, methyl N-[5-[6-[(4-fluoro-2-methoxy-phenyl)-methyl-carbamoyl]imidazo[1,2-a]pyridin-3-yl]-2-pyridyl]carbamate]: in assay [1], the inhibition of growth at 20 ppm is at least 80%. Besides, the pest or weed control at 200 ppm in assay [2] and in assay [3] was at least 80% each time.
As to `COC(=O)Nc1ccc(-c2cnc3ccc(C(=O)N(C)c4cccc5c4OCC5)cn23)cn1` [Compound 4, methyl N-[5-[6-[2,3-dihydrobenzofuran-7-yl(methyl)carbamoyl]imidazo[1,2-a]pyridin-3-yl]-2-pyridyl]carbamate], the inhibition of growth at 20 ppm in assay [1] was at least 80%. The compound further yielded a pest or weed control at 200 ppm in assay [2] of at least 80%.
Turning to `COC(=O)Nc1ccc(-c2cnc3ccc(C(=O)N4CCCc5c4ccc(F)c5F)cn23)cn1` [Compound 21, methyl N-[5-[6-(5,6-difluoro-3,4-dihydro-2H-quinoline-1-carbonyl)imidazo[1,2-a]pyridin-3-yl]-2-pyridyl]carbamate], in assay [1], the inhibition of growth at 20 ppm was at least 80%. The pest or weed control at 200 ppm in assay [2] and in assay [3] was at least 80% each time.
For the compound `COC(=O)Nc1ccc(-c2cnc3ccc(C(=O)N4CC(C(=O)OC)Cc5ccccc54)cn23)cn1` (stereo not shown) [Compound 11, methyl 1-[3-[6-(methoxycarbonylamino)-3-pyridyl]imidazo[1,2-a]pyridine-6-carbonyl]-3,4-dihydro-2H-quinoline-3-carboxylate], in assay [1], the inhibition of growth at 20 ppm is at least 80%. The pest or weed control at 200 ppm in assay [2] and in assay [3] was at least 80% throughout.
In assay [1], `COC(=O)Nc1ccc(-c2cnc3ccc(C(=O)N4CCCc5cc(F)c(OC)cc54)cn23)cn1` [Compound 64, methyl N-[5-[6-(6-fluoro-7-methoxy-3,4-dihydro-2H-quinoline-1-carbonyl)imidazo[1,2-a]pyridin-3-yl]-2-pyridyl]carbamate] gave an inhibition of growth at 20 ppm of at least 80%. Moreover, the pest or weed control at 200 ppm in assay [2] and in assay [3] was at least 80% in each case.
